{
  "source": "paper PMC9030691",
  "about": "“Toxicokinetics of β-Amanitin in Mice and In Vitro Drug–Drug Interaction Potential” (Pharmaceutics, 2022)",
  "key": {"CYP3A4": {"biological_target": "T1, CYP3A4 (Homo sapiens, UniProt P08684)", "T1 construct": "from tissue; host or cells: ultrapooled human liver microsomes", "T1 sequence (P08684 whole entry)": "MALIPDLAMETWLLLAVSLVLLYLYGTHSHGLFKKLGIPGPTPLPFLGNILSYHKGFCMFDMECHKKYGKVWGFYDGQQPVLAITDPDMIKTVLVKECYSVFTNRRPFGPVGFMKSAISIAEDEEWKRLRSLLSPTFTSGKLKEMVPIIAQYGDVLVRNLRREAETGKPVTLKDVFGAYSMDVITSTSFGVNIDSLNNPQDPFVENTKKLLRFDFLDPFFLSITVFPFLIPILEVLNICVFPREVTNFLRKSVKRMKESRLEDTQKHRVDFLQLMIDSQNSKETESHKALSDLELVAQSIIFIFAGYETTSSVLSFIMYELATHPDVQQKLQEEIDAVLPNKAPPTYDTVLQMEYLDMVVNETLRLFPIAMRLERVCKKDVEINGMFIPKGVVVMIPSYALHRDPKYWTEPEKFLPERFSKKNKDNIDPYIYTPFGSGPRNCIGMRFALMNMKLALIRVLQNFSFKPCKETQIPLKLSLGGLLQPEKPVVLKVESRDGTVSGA", "test": "CYP3A4 inhibition in human liver microsomes", "type": "in vitro ADME", "conditions": "ultrapooled human liver microsomes 0.2 mg/mL, 2.5 μM midazolam, β-amanitin 0.1–100 μM, pH 7.4, 37 °C, 15 min, LC-MS/MS, n = 3, read-out: IC50, CYP3A4 midazolam 1′-hydroxylase", "procedure": "β-amanitin inhibition (IC50 values) of CYP1A2, CYP2A6, CYP2B6, CYP2C8, CYP2C9, CYP2C19, CYP2D6, and CYP3A4 enzyme activities in HLMs were evaluated using LC-MS/MS and CYP substrates as previously described. Each incubation mixture was made up to a volume of 100 μL including HLMs (0.2 mg/mL), 50 mM potassium phosphate buffer (pH 7.4), 1.0 mM NADPH, 10 mM magnesium chloride, various concentrations of β-amanitin (0.1–100 μM), a cocktail of seven CYP probe substrates (50 μM phenacetin for CYP1A2, 2.5 μM coumarin for CYP2A6, 2 μM amodiaquine for CYP2C8, 10 μM diclofenac for CYP2C9, 100 μM [S]-mephenytoin for CYP2C19, 5 μM bufuralol for CYP2D6, and 2.5 μM midazolam for CYP3A4 in acetonitrile), or 50 μM bupropion for CYP2B6. The reactions were initiated with NADPH followed by incubation in a shaking water bath at 37 °C for 15 min with or without 30 min preincubation with NADPH. Reactions were stopped with 50 μL of ice-cold methanol containing ^13C2, ^15N-acetaminophen and d9-1′-hydroxybufuralol (ISs). Incubation mixtures were centrifuged at 13,000× g for 8 min at 4 °C. An aliquot (5 μL) of the supernatant from the reaction mixture was analyzed by the previous LC-MS/MS method."}, "[1]": {"test": "Toxicokinetics after oral administration in mice", "type": "in vivo", "conditions": "male ICR mice; for bioavailability / Tmax / Cmax / half-life / AUC(0-inf) / AUC(0-t): mouse; for bioavailability / Tmax / Cmax / AUC(0-inf) / AUC(0-t): plasma; for bioavailability: (dose normalized AUCPO/dose normalized AUCIV) × 100, mean ± SD, read-out: F (oral bioavailability); for Tmax: median with range in parentheses; for Cmax: fasted; for Cmax / AUC(0-inf) / AUC(0-t): LC-HRMS; for Cmax / half-life / AUC(0-inf) / AUC(0-t): mean ± SD; for half-life: plasma elimination half-life; for AUC(0-inf) / AUC(0-t): non-compartmental", "procedure": "The Institutional Animal Care and Use Committee of the Catholic University of Korea (approval number, CUK-IACUC-2021-004; approval date, 21 March 2021) approved the study protocol. Male ICR mice (8 weeks of age, 27.4 ± 2.3 g) were purchased from Orient Bio Inc. (Seongnam, Korea). Mice were kept in plastic cages with unlimited access to a standard mouse diet (Orient Bio) and water before the experiments. For oral administration, mice were fasted for at least 12 h but allowed free access to water.\nβ-amanitin was dissolved in water and administered to mice by gavage at doses of 2 (n = 7), 5 (n = 9), and 10 (n = 7) mg/kg. Blood samples (approximately 15 μL) were collected from the retro-orbital plexus under light anesthesia with isoflurane at 0.033, 0.083, 0.166, 0.25, 0.5, 0.75, 1, 1.5, 2, 4, 6, and 8 h after drug administration. Plasma samples (5 μL each) were harvested by centrifugation at 13,000× g for 3 min at 4 °C and stored at −80 °C until analysis.\nConcentrations of β-amanitin in biological samples were evaluated following our previous methodology. The standard calibration curves for β-amanitin in mouse plasma ranged from 0.5 to 500 ng/mL and were linear, with a correlation coefficient of 0.9952. The inter- and intra-day accuracy and precision fell within the acceptance criteria (3.1–14.6% of coefficients of variation (CVs) and 92.5–115.0% of accuracy). The extraction recovery and matrix effect of this analytical method were 82.8–88.9% and 93.0–98.6%.\nAn aliquot (5 μL) of plasma sample was mixed with 15 μL of 4′-hydroxydiclofenac (internal standard (IS), 5 ng/mL) in methanol and vortexed for 2 min. The mixture was centrifuged at 13,000× g at 4 °C for 5 min, and the supernatant was then transferred to an autosampler vial. An aliquot (5 μL) was injected into the LC-HRMS system for analysis.\nThe toxicokinetic parameters of β-amanitin were analyzed by non-compartmental analyses (WinNonlin, Pharsight; Mountain View, CA, USA) (Table 1). Data were expressed as mean ± standard deviations (SD). Comparisons of data between groups were performed using one-way ANOVA or Student t-test. Values of p < 0.05 were considered statistically significant."}, "[2]": {"test": "Urinary and fecal excretion in mice", "type": "in vivo, male ICR mice", "conditions": "male mice, LC-HRMS, mean ± SD; for dose excreted: ICR, mouse", "procedure": "β-amanitin in water was administered by iv bolus injection into the tail vein at 0.8 mg/kg dose (n = 4) and by oral gavage at 10 mg/kg dose (n = 3) to male mice. Mice were returned to metabolic cages, and urine and feces samples were collected individually at 0–6, 6–12, 12–24, 24–36, and 36–48 h. Urine and feces samples were stored at −80 °C until the analysis.\nEach tissue and feces sample was homogenized in water (1:3, w/v). In total, 50 μL aliquots of urine, tissue homogenates, or feces homogenates were mixed with 150 μL of 4′-hydroxydiclofenac solution (IS, 5 ng/mL in methanol). The other steps were as described for plasma sample preparation."}, "humans": {"system": "humans", "conditions": "oral administration; cited from earlier work", "procedure": "Amanita phalloides poisoning can cause acute hepatitis, leading to the rapid development of liver insufficiency and ultimately coma and death. Nephrotoxicity is reported less frequently. Yilmaz et al. reported that an oral intake of approximately 50 g of fresh Amanita phalloides, representing a dose of 0.32 mg/kg of amatoxins, can be lethal. A few reports are available that describe the toxicokinetics of α- and β-amanitin after the oral administration of toadstool extract to beagle dogs and rats. In addition, the toxicokinetics of α-amanitin were investi ... || The Amanitaceae family is responsible for nearly 95% of all fatal mushroom poisonings, and amatoxins are the primary threats to human life. The content of amatoxins varies by Amanita species, but α- and β-amanitin are the most abundant substances. […] Among amatoxins, α-amanitin i ..."}, "[3]": {"conditions": "oral 2, 5 and 10 mg/kg, range of the dose-group means"}},
  "note": "Read-outs that look alike come from different tables or passages of the source.",
  "data": [
    {"compound": "CC[C@H](C)[C@@H]1NC(=O)CNC(=O)[C@@H]2Cc3c([nH]c4cc(O)ccc34)[S@+]([O-])C[C@H](NC(=O)CNC1=O)C(=O)N[C@@H](CC(=O)O)C(=O)N1C[C@H](O)C[C@H]1C(=O)N[C@@H]([C@@H](C)[C@@H](O)CO)C(=O)N2", "note": "[β-amanitin]", "values": [
      {"measurement": "IC50", "setting": "CYP3A4; with 30 min NADPH preincubation", "result": "> 100", "unit": "µM"},
      {"measurement": "IC50", "setting": "CYP3A4; without NADPH preincubation", "result": "> 100", "unit": "µM"},
      {"measurement": "Tmax, range over the oral doses", "setting": "[1]; oral 2, 5 and 10 mg/kg, range of individual values", "result": "10~120 min"},
      {"measurement": "Absolute (oral) bioavailability, range over the oral doses", "setting": "[1]; [3]", "result": "7.3–9.4%"},
      {"measurement": "t1/2, range over the oral doses", "setting": "[1]; [3]", "result": "105.0~132.0 min"},
      {"measurement": "bioavailability", "setting": "[1]; oral gavage 2 mg/kg, n = 7", "result": "9.4 ± 4.9", "unit": "%"},
      {"measurement": "Tmax", "setting": "[1]; oral gavage 2 mg/kg, n = 7", "result": 1, "unit": "h"},
      {"measurement": "bioavailability", "setting": "[1]; oral gavage 5 mg/kg, n = 9", "result": "8.1 ± 4.3", "unit": "%"},
      {"measurement": "Tmax", "setting": "[1]; oral gavage 5 mg/kg, n = 9", "result": 1.5, "unit": "h"},
      {"measurement": "bioavailability", "setting": "[1]; oral gavage 10 mg/kg, n = 7", "result": "7.3 ± 3.1", "unit": "%"},
      {"measurement": "Tmax", "setting": "[1]; oral gavage 10 mg/kg, n = 7", "result": 1, "unit": "h"},
      {"measurement": "Cmax", "setting": "[1]; oral gavage 2 mg/kg in water, n = 7", "result": "67.1 ± 18.6", "unit": "ng/mL"},
      {"measurement": "Cmax", "setting": "[1]; oral gavage 5 mg/kg in water, n = 9", "result": "140 ± 116", "unit": "ng/mL"},
      {"measurement": "Cmax", "setting": "[1]; oral gavage 10 mg/kg in water, n = 7", "result": "360 ± 385", "unit": "ng/mL"},
      {"measurement": "half-life", "setting": "[1]; oral gavage 2 mg/kg, n = 7", "result": "1.75 ± 1.57", "unit": "h"},
      {"measurement": "AUC(0-inf)", "setting": "[1]; oral gavage 2 mg/kg, n = 7", "result": 191, "unit": "ng·h/mL"},
      {"measurement": "AUC(0-t)", "setting": "[1]; oral gavage 2 mg/kg, n = 7", "result": 181, "unit": "ng·h/mL"},
      {"measurement": "half-life", "setting": "[1]; oral gavage 5 mg/kg, n = 9", "result": "2.2 ± 0.838", "unit": "h"},
      {"measurement": "AUC(0-inf)", "setting": "[1]; oral gavage 5 mg/kg, n = 9", "result": 438, "unit": "ng·h/mL"},
      {"measurement": "AUC(0-t)", "setting": "[1]; oral gavage 5 mg/kg, n = 9", "result": 391, "unit": "ng·h/mL"},
      {"measurement": "half-life", "setting": "[1]; oral gavage 10 mg/kg, n = 7", "result": "2.17 ± 1.31", "unit": "h"},
      {"measurement": "AUC(0-inf)", "setting": "[1]; oral gavage 10 mg/kg, n = 7", "result": 810, "unit": "ng·h/mL"},
      {"measurement": "AUC(0-t)", "setting": "[1]; oral gavage 10 mg/kg, n = 7", "result": 698, "unit": "ng·h/mL"},
      {"measurement": "dose excreted", "setting": "[2]; iv bolus 0.8 mg/kg, metabolic cages, urine 0–48 h, n = 4, read-out: Total urinary recovery (parent form) after 48 h", "result": "52.3 ± 19.8", "unit": "%"},
      {"measurement": "dose excreted", "setting": "[2]; oral gavage 10 mg/kg, feces 0–48 h, n = 3, read-out: Cumulative fecal excretion for 48 h", "result": "72.4 ± 24.7", "unit": "%"},
      {"measurement": "dose excreted", "setting": "[2]; oral gavage 10 mg/kg, urine 0–48 h, n = 3, read-out: Cumulative urinary excretion for 48 h", "result": "2.4 ± 1.2", "unit": "%"},
      {"measurement": "Total fecal recovery over 48 h", "setting": "[2]; iv bolus 0.8 mg/kg, feces 0–48 h, n = 4", "result": "7.6% ± 1.2"},
      {"measurement": "Urinary recovery within 6 h", "setting": "[2]; iv bolus 0.8 mg/kg, urine 0–6 h, n = 4", "result": "40.9% ± 27.6"}
    ]},
    {"compound": "α-amanitin [reference compound]", "values": [
      {"measurement": "Lethal dose", "setting": "humans", "result": 0.1, "unit": "mg/kg"}
    ]}
  ]
}
